Measured values as given in patent US10894059B2, “NADH compound composition, and preparation and use thereof” (BONTAC BIO-ENGINEERING (SHENZHEN) CO., LTD, priority 2017, dated 2021).

Key:
[1] = tested on: mice fed with high fat feed; test: Comparative pharmacological evaluation in obese mice (high fat feed model); assay type: in vivo; conditions: gavage once a day, 50 mg according to L-carnitine, 4 weeks
Protocol: Fifty male mice are selected at 6 weeks of age. The basal feed is fed for two weeks before the start of the experiment, and the initial body weight is 26±2 g. All experimental groups are randomly divided into 5 groups of 10 each, and the groups were as follows. (1) obesity experiment group: 1 group; (2) obesity experiment group: 2 groups; (3) obese control group; (4) obese blank group; (5) normal blank group Cage feeding, 5 in 1 cage; ambient temperature of 22±2° C., humidity of 45˜65%; the light illumination alternates for 12 h, and the mice are free to eat and drink. Among them, the normal blank group is fed with normal feed, and the other 4 groups are fed with high fat feed; changes in body weight are recorded twice a week; the feeding process lasts 6 weeks to establish the model. Group (1) is given a solution of the NADH compound composition prepared in Embodiment 1 by gavage once a day; Group (2) is given a mixture of NADH and L-carnitine in Embodiment 1 (without other ingredients) by gavage once a day; Group (3) is given L-carnitine by gavage once a day; the amount of administration for Group (1), Group (2) and Group (3) is 50 mg according to L-carnitine; during the period, 5 groups of mice are fed with normal diet in free diet, and continued to be observed for 4 weeks. […]

[2] = people taking L-carnitine for weight loss, as much as 1˜3 g; cited from earlier work

## C[N+](C)(C)C[C@H](O)CC(=O)[O-] [L-carnitine, β-hydroxy γ-trimethylammonium butyrate]
[1]; (fat around kidney + fat around testicles)/body weight after test*100
  Body fat ratio (%): 2.35 ± 2.69%
[1]; weight growth/experimental initial weight*100
  Body weight growth rate (%): 44.98 ± 3.44%
[2]
  absolute bioavailability: 15.9±4.9%
